Experimental findings from patent EP4420661B1, “SMALL MOLECULES TARGETING GLYCOPROTEIN VI AS ANTIPLATELET AGENTS FOR USE IN THE PREVENTION AND/OR TREATMENT OF THROMBOSIS AND ASSOCIATED PATHOLOGIES” (Universidade de Santiago de Compostela, priority 2023, dated 2024) are described below.

For data set [1], the system named is human platelets. The data set can be described thus: platelet spreading assay on CRP (phalloidin staining, confocal microscopy). Format: cell-based. The note with it: 10µM; CRP 1µg/mL; Figure 4. The procedure:
Platelet spreading experiments were carried out to assess the potency of the compounds of formula (I), exemplified by compounds (If)and (Ih).
Platelets can change from a rounded, non-adherent form to adhere and flatten shape when exposed to ligands. This "spreading" effect can lead to the formation of cytoskeletal protein rearrangement. Platelet adhesion and extent of spreading (area covered) can be quantified.
Briefly, human platelets from healthy individuals were isolated and washed. Then, platelets were incubated with the inhibitors at 10µM for 5 min at room temperature and then for 45 min at 37°C in coverslips coated with 1µg/mL of agonist (CRP).
The images of platelet shape given by phalloidin staining were acquired by confocal fluorescence microscopy and the area analyzed by ImageJ [Onselaer et al., (2020)].

The nature of data set [2]: plasmatic stability, rat plasma. The settings on record: for Plasmatic stability: Rat plasma. The class given is in vitro ADME. The method, then:
Rat, human, mouse and dog plasma pooled from healthy donors extracted in citrate tubes was employed in the assay.
[…] Then 300µl Acetonitrile were added for precipitating plasma protein, and the plate was centrifuged at 4000 g for 60 min at 4°C.
Supernatant was taken and analyzed by UPLC/MS/MS for sample quantification. Stationary phase: Reverse phase ACQUITY BEH C18 1.7µm 2.1x50mm (Waters) Mobile phase: 0.1% Formic acid water/0.1% formic acid in acetonitrile Gradient: Table 4: UPLC gradient / Plasmatic stability assay
The chromatographic equipment employed was an UPLC QSM Waters Acquity. Compound concentrations were calculated from the MS peak areas.

Another data set relates to Plasma protein. The data set can be described thus: plasma protein binding, Rapid Equilibrium Dialysis (RED), rat. Format: in vitro ADME. The note with it: 5 µM, 4h at 37°C. The method, then:
(§1) Plasma from Seralab was employed in the assay and was carried out by employing Rapid Equilibrium Dialysis (RED) from Thermo Scientific.
(§2) The compounds were dissolved at 5 µM in plasma and added to the corresponding insert of the RED device. Dialysis buffer was added to the corresponding insert of the RED device. Plate was incubated for 4h at 37°C.
(§3) After the incubation period 50 µL aliquots of each chamber were transferred to empty vials. 50 µL of dialysis buffer were added to the plasma samples and 50 µL of plasma were added to the buffer samples. 300 µL of acetonitrile were added to all the samples and centrifuged at 4000 rpm 100 µL aliquots of the supernatants were transferred to a LC analysis plate. Samples were analyzed in a UPLC/MS/MS. Stationary phase: Acquity UPLC® BEHC18 1,7 µm (2.1 mm x 50 mm) (Waters). Gradient: A (H2O + 0.1% Formic acid); B (ACN + 0.1% Formic acid); Flow: 0.6mL/min Table 8: UPLC gradient / Protein binding assay
(§4) The chromatographic equipment employed was an ACQUITY UPLC / Xevo TQD System. Compound concentrations were calculated from the MS peak areas. Table 9: Plasma protein binding of the compounds of formula (I) in rat, mice, dogs and humans / (*) low recovery
A general note: Equilibrium dialysis compares concentrations on both sides of a semipermeable membrane.

Assay in data set [3]: as above
Format: in vitro ADME. The note with it: 4h at 37°C. The method, then: as §1, §2, §3, §4

In data set [4] the test system is human platelets. As to the kind of experiment: platelet aggregation assay, CRP-induced. The class given is cell-based. The settings on record: Homo sapiens, Platelet, CRP 1 µg/mL. The method, then:
Platelet aggregation assays were carried out to assess the potency of the active compounds as previously described [Barrachina et al. (2021)].
Briefly, human platelets from at least =7 healthy individuals were isolated and washed. Then, the suspension was incubated with the compounds at 10 µM at 37 ∘C for 4 min in a Chrono-log® 490-X aggregometer (Chrono-log Corporation, Havertown, PA, USA). After that, platelets were stimulated with the agonist CRP at 1 µg/mL for 5 min.

In data set [5] the test system is human platelets. The data set can be described thus: intracellular Ca+2 mobilization assay, CRP-activated washed platelets (FLIPR Calcium 4). The class given is cell-based. The note with it: Platelet, calcium mobilization in human platelets, read-out: % Inhibition of CRP effect at 1µM, Mean. The method, then: An intracellular Ca^+2 mobilization assay was used to test the activity of the ligands in platelets. This assay measures the changes in calcium in real time by fluorophore dye Calcium 4, providing a useful way to characterize platelet activation by GPVI signaling [Barrachina et al. (2021)].
Washed platelets (5x10E6) were incubated with FLIPR Calcium 4 reagent (Molecular Devices LLC, San Jose, CA, USA) in a 384-well transparent bottom plate (Greiner Bio-One International GmbH, Kremsmünster, Austria) and supplemented with Probenecid (Invitrogen™, Carlsbad, CA, USA) 0.07% for 1 h at 37 °C. Platelets were co-incubated for 10 min with the tested compounds and inhibitors of secondary mediators (2 U/mL apyrase and 10 microM indomethacin (Sigma-Aldrich, Saint Louis, MO, USA)) under nonaggregating conditions (9 microM eptifibatide (Cayman Chemicals, Ann Arbor, MI, USA)). Then, the GPVI-specific agonist Collagen-Related Peptide (CRP) was added to the platelet suspension at different doses. Both potential GPVI inhibitors and CRP were automatically dispensed by FDSS7000EX Functional Drug Screening System (Hamamatsu Photonics, Hamamatsu, Japan). Intracellular Ca^2+ mobilization was assessed by measuring fluorescence changes ([…] wavelengths) in real time for 15 min after the addition of the agonist. 100% was expressed as maximal Ca^2+ release in platelets treated with the agonist CRP. To determine IC50, compounds were tested at 9 different concentrations in duplicates starting from 10 uM and performing 1:3 serial dilutions. The analysis of the data was performed with GraphPad Prism® software (version 6.0e, March 2014) (GraphPad Software, San Diego, CA, USA) by carrying out a nonlinear regression fit for log(inhibitor) vs. relative CRP activity using a Hill slope of -1, and top and bottom constraints of 100 and 0, respectively.

For `O=C(Cc1ccc2c(c1)OCCO2)Nc1nc(-c2ccc3c(c2)CCC(=O)N3)cs1` [Compound (If)], in the data set with human platelets [1], the “platelet spreading on CRP (in words)” value is given as “inhibition of platelet spreading on CRP”. Further, the Plasmatic stability in data set [2] (10µM, t 0 min) amounted to 100.0; in data set [2] (10µM, t 60 min) it was 105.5; in data set [2] (10µM, t 120 min), 105.4; in data set [2] (10µM, t 360 min), 81.6; in data set [2] (100µM, t 0 min) it was 100.0; in data set [2] (100µM, t 60 min) it was 88.8. Besides, the Plasmatic stability in data set [2] (100µM, t 120 min) was found to be 95.1; in data set [2] (100µM, t 360 min) it was 65.7. Further, the “plasmatic stability (in words)” value in data set [2] (rats) is “high plasmatic stability”. Moreover, the Unbound fraction in the data set with Plasma protein turned out to be 0.10%. Moreover, the unbound share (fraction unbound) (usually free concentration divided by total concentration) at 4 h, 5 µM in data set [3] amounted to 0.001. Testing at 10 µM in the data set with human platelets [4] gave an inhibition of 70 ± 19%. In addition, the inhibition – broadly, the drop in the measured response relative to a control, in per cent – at 1 µM in the data set with human platelets [5] was determined as 31%.
